Measurements published in patent US20060183221A1, “Method for neural differentiation of embryonic stem cells using protease passaging techniques” (priority 2003, published 2006).
“Also recorded” adds a separate entry of the source.

System: sfEBMs in suspension
Assay: S18 treatment of essentially serum free embryoid bodies (sfEBMs) in suspension, histology and immunocytochemistry
Format: cell-based, human
Method: Essentially serum free embryoid bodies (sfEBMs) were generated as described in Example 6, and were exposed to S18 at different stages of their development in order to assess the timing of depletion of high Oct4 expressing cells, and in order to determine when neural rosettes could be selected. The sfEBMs in suspension were treated with 10 μM S18 in 50% DMEM/F12, 50% MEDII, supplemented with 1×N2, Glutamine (20 mM), penicillin (0.5 U/ml), and streptomycin (0.5 U/ml) for varying amounts of time, and the sfEBMs were then evaluated histologically and by immunocytochemistry.
Essentially serum free embryoid bodies were derived from protease passaged cells and grown in the presence of 50% MEDII conditioned medium. The embryoid bodies were exposed to 10 μM S18 in the same medium from day 6 to 9 after derivation. At day 9 the S18 treated sfEBMs and matched control sfEBMs not exposed to S18 were fixed, embedded in plastic, cut to 3 micron sections and stained with DAPI to enable the precise determination of the proportion of the total healthy nuclei of an sfEBM that were rosette cell nuclei.
This material was exposed to 10 μM S18 in 50% MEDII medium for 2 days, followed by manual passaging, and an additional 4 days in 10 μM S18 in the same medium. […] The non-rosette regions of the sfEBM fragmented when manipulated and released extensive stringy material that was indicative of genomic DNA from lysed cells. […] The rosette pieces were incubated in 10 μM S18 for a further 4 days, and the medium was then switched to 50% DMEM/F12, 50% MEDII, supplemented with 1×N2, and 4 ng/ml FGF-2 at day 20 after the initial derivation of the embryoid bodies.
At day 21 some ceramide selected sfEBMs were seeded onto polyornithine/laminin coated slides, cultured in the same medium for an additional 8 days, and fixed for immunostaining. These seeded pieces developed as rosette cultures and mats of neurons were observed differentiating from these precursors.
Essentially serum free embryoid bodies were derived from manually passaged cells, or protease passaged cells. EBs derived from protease passaged cells were formed in the presence of 50% MEDII conditioned medium. The embryoid bodies were exposed to 10 μM S18 in the same medium from day 6 to 9 after derivation. At day 9 the S18 treated sfEBMs matched control sfEBMs not exposed to S18, and matched control manually passaged sfEBs were sectioned to enable the precise determination of the proportion of the total healthy nuclei of an sfEBM that were rosette cell nuclei. The serum free embryoid bodies were embedded using the Immuno-Bed kit (Polysciences, Inc.). Serum free embryoid bodies were rinsed with 1×PBS and fixed in 4% paraformaldehyde, 4% sucrose in 1×PBS for 30 minutes at 4° C. The cells were then washed in 1×PBS and stored at 4° C. PBS was removed and the embryoid bodies were dehydrated by incubation in a series of 25%, 50%, 75% Ethanol/PBS for 5 minutes at room temperature, followed by 100% Ethanol. Infiltration solution was made by adding 0.25 g Benzoyl Peroxide to 20 ml Immuno-Bed Solution A. The ethanol was removed from the serum free embryoid bodies and 1 ml infiltration solution was added. After one hour, the infiltration solution was changed for three 20 min incubations. For embedding, 1 ml solution B (accelerator) was added to 25 ml fresh infiltration solution. The infiltration solution was removed from the serum free embryoid bodies and 0.5 ml embedding solution was added. The samples were transferred to a mold, a block holder was added and the mold was placed at 4° C. to set. 3 micron sections were cut using a Leica microtome, and were stained with DAPI.

[1] = sfEBMs at day 14, 48 hours exposure to 10 μM S18

CCCCCCCC/C=C\CCCCCCCC(=O)NC(CO)CO [S18, N-(2-hydroxy-1-(hydroxymethyl)ethyl)-oleoylamide]
derivation of sfEBMs from monolayer crater cells (10 μM S18, four days of treatment): No viable embryoid bodies were observed | regions or cells of high Oct4 expression (residual pluripotent cells) (10 μM S18 in suspension, then seeded, anti-Oct4 immunostaining): no regions of high Oct4 expression could be detected; also recorded: do not exhibit any cells expressing high levels of Oct4 | mitotic activity of neural rosette precursor cells (PhosphoHistone H3) (day 28 after derivation, 8 days after withdrawal of S18): still mitotically active | apoptosis in the embryoid bodies [1]: extensive apoptosis in the bodies | morphology of rosette regions [1]: morphologically normal | surviving cells in DAPI stained sections of sfEBMs (sfEBMs from SSEA4 selected protease passaged HESCs, 10 μM S18 from day 6 to 9): highly enriched population of neural rosette cells; also recorded: nearly all nuclei in the treated sfEBM were elongated in appearance; also recorded: Nearly all cells exhibited a radial nuclear staining
